According to US7776862B2, “Pyridyl and phenyl substituted piperazine-piperidines with CXCR3 antagonist activity” (Schering Corporation, priority 2005, dated 2010):

The compounds below were run against T1, human CXCR3 (N-delta 4) (Homo sapiens, UniProt P49682) (assay: Human CXCR3 (N-delta 4) scintillation proximity assay (SPA), [125I] IP-10 binding). Settings: IC50 rating; Ba/F3-hCXCR3 (N-delta 4) membranes, 25 pM [125I] IP-10.
T1 construct: CD8 leader; Flag tag; expressed in transfected cells; membranes used
T1 sequence (P49682 5-368 limits assumed): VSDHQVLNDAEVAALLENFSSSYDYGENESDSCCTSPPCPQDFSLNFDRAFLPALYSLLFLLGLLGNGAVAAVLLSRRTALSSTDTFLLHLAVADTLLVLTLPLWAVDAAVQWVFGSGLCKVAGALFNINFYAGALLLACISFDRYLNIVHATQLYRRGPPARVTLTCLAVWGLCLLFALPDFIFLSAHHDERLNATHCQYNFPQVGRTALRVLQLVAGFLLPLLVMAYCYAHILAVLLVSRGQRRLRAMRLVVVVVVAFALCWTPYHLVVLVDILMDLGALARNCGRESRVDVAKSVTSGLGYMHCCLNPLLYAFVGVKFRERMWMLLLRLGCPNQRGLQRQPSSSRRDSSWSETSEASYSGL
Method in brief: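 Membranes from mouse Ba/F3 pro-B cells stably expressing Flag-tagged human CXCR3 (N-delta 4) were coupled to SPA beads. IP-10 was added together with titrated compounds to start the reaction, and bound radioligand was read by scintillation proximity.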

| Structure (SMILES) | IC50 [nM] |
| --- | --- |
| O=C(NCc1cc(Cl)cc(Cl)c1)c1cnc(N2CCN(C3CCN(Cc4ccc(Cl)c(F)c4)CC3)CC2)c(Cl)c1 [compound 80] | > 100 |
| C[C@H]1CN(c2ncc(C(=O)NCC3CCCCC3)cc2Cl)CCN1C1CCN(Cc2ccc(Cl)cc2)CC1 [compound 228] | < 25 |
| O=C(NCc1ccc(F)c(Cl)c1)c1cnc(N2CCN(C3CCN(Cc4ccc(F)cc4)CC3)CC2)c(Cl)c1 [compound 144] | 25 to 100 |
| CC[C@H]1CN(c2cc(N)c(C(N)=O)cc2Cl)CCN1C1CCN(Cc2ccc(Cl)cc2F)CC1 [compound 315] | 25 to 100 |
| CCNC(=O)c1cnc(N2CCN(C3CCN(C(=O)c4ccc(Cl)cc4F)CC3)[C@@H](CC)C2)c(Cl)c1 [compound 260] | < 25 |
| O=C(NCc1ccc(Br)cc1)c1cnc(N2CCN(C3CCN(Cc4ccc(Br)cc4)CC3)CC2)c(Cl)c1 [compound 308] | 25 to 100 |
| N#Cc1ccc(CN2CCC(N3CCN(c4ncc(C(=O)NCc5cccc(F)c5)cc4Cl)CC3)CC2)cc1 [compound 61] | > 100 |
| CCNC(=O)c1cnc(N2C[C@H](CC)N(C3CCN(Cc4ccc(Cl)cc4)CC3)C[C@H]2C)c(Cl)c1 [compound 214] | < 25 |
| CCNC(=O)c1cnc(N2CCN(C3(CC)CCN(Cc4ccc(Cl)cc4)CC3)CC2)c(Cl)c1 [compound 208] | > 100 |
| N#Cc1ccc(CN2CCC(N3CCN(c4ncc(C(=O)NCc5ccc(Cl)cc5)cc4Cl)CC3)CC2)cc1 [compound 126] | 25 to 100 |
| CC[C@H]1CN(c2ncc(C(=O)NC)cc2Cl)CCN1C1CCN(C(=O)c2ccc(Br)cc2)CC1 [compound 245] | < 25 |
| CC(c1ccc([N+](=O)[O-])cc1)N1CCC(N2CCN(c3ncc(C(=O)NCc4ccc(F)c(F)c4)cc3Cl)CC2)CC1 (centres unmarked) [compound 76] | > 100 |
| CC[C@H]1CN(c2ncc(CNC3CC3)cc2Cl)CCN1C1CCN(Cc2ccc(Cl)cc2F)CC1 [compound 395] | < 25 |
| O=C(NCc1cccc(Cl)c1)c1cnc(N2CCN(C3CCN(Cc4ccc(F)cc4F)CC3)CC2)c(Cl)c1 [compound 28] | > 100 |
| CC[C@H]1CN(c2ncc(C(=O)NC)cc2Cl)CCN1C1CCN(Cc2ccc(Br)cc2F)CC1 [compound 219] | < 25 |
| CC[C@H]1CN(c2ncc(CNc3c(NC4CC4)c(=O)c3=O)cc2Cl)CCN1C1CCN(Cc2ccc(Br)cc2F)CC1 [compound 412] | 25 to 100 |
| CC[C@H]1CN(c2ncc(CNC(=O)NC)cc2Cl)CCN1C1CCN(Cc2ccc(Cl)cc2F)CC1 [compound 377] | < 25 |
| O=C(NCc1ccc(F)c(Cl)c1)c1cnc(N2CCN(C3CCN(Cc4ccc(Br)cc4F)CC3)CC2)c(Cl)c1 [compound 33] | > 100 |
| O=C(NCc1ccc(Cl)c(Cl)c1)c1cnc(N2CCN(C3CCN(Cc4ccc(Br)cc4F)CC3)CC2)c(Cl)c1 [compound 65] | > 100 |
| C[C@H]1CN(c2ncc(C(=O)N3CCCCC3)cc2Cl)CCN1C1CCN(Cc2ccc(Cl)cc2)CC1 [compound 355] | > 100 |
| COc1ccc(CN2CCC(N3CCN(c4ncc(C(=O)NCc5ccc(F)cc5F)cc4Cl)CC3)CC2)cc1 [compound 56] | > 100 |

| Structure (SMILES) | IC50 [nM] |
| --- | --- |
| COc1ccc(CN2CCC(N3CCN(c4ncc(C(=O)NCc5ccc(Cl)cc5Cl)cc4Cl)CC3)CC2)cc1 [compound 63] | > 100 |
| CC1CN(c2ncc(C(=O)NCc3ccc(Cl)c(Cl)c3)cc2Cl)CCN1C1CCN(Cc2ccc(Cl)cc2)CC1 (centres unmarked) [compound 185] | < 25 |
| C[C@H]1CN(c2ncc(C(=N)N)cc2Cl)CCN1C1CCN(Cc2ccc(Cl)cc2)CC1 [compound 429] | 25 to 100 |
| CC[C@H]1CN(c2ncc(CN)cc2Cl)CCN1C1CCN(Cc2ccc(Br)cc2F)CC1 [compound 421] | 25 to 100 |
| O=C(NC1CCCC1)c1cnc(N2CCN(C3CCN(Cc4ccc(Br)cc4)CC3)CC2)c(Cl)c1 [compound 37] | > 100 |
| CNC(=O)c1cnc(N2CCN(C3CCN(Cc4ccc(F)cc4S(=O)(=O)N(C)c4ccc(Cl)cc4)CC3)[C@@H](C)C2)c(Cl)c1 [compound 354] | > 100 |
| N#Cc1ccc(C(=O)N2CCC(N3CCN(c4ncc(C(=O)NCc5ccc(Br)cc5)cc4Cl)CC3)CC2)cc1 [compound 68] | > 100 |
| O=C(NCc1ccc(Cl)cc1Cl)c1cnc(N2CCN(C3CCN(Cc4ccc(F)cc4F)CC3)CC2)c(Cl)c1 [compound 59] | > 100 |
| CNC(=O)c1cnc(N2CCN(C3CCN(C(=N)c4ccc(Cl)cc4)CC3)[C@@H](C)C2)c(Cl)c1 [compound 292] | 25 to 100 |
| N#Cc1ccc(C(=O)N2CCC(N3CCN(c4ncc(C(=O)NCc5ccc(C(F)(F)F)cc5)cc4Br)CC3)CC2)cc1 [compound 70] | > 100 |
| CC1CN(C2CCN(Cc3ccc(Cl)cc3)CC2)CCN1c1ncc(C(=O)NCc2ccc(Cl)c(Cl)c2)cc1Cl (centres unmarked) [compound 122] | 25 to 100 |
| COc1ccc(CN2CCC(N3CCN(c4ncc(C(=O)NCc5ccc(Cl)c(Cl)c5)cc4Br)CC3)CC2)cc1 [compound 276] | 25 to 100 |
| CC[C@H]1CN(c2ncc(C(=O)NC3CC3)cc2Cl)CCN1C1CCN(Cc2ccc(F)cc2C(F)(F)F)CC1 [compound 318] | 25 to 100 |
| O=C(NCc1cccc(Cl)c1)c1cnc(N2CCN(C3CCN(Cc4ccc(Cl)c(F)c4)CC3)CC2)c(Cl)c1 [compound 24] | > 100 |
| CCCCNC(=O)c1cnc(N2CCN(C3CCN(Cc4ccc(Cl)cc4)CC3)CC2)c(Cl)c1 [compound 177] | > 100 |
| O=C(NCc1ccc(Cl)c(Cl)c1)c1cnc(N2CCN(C3CCN(Cc4ccc(F)cc4F)CC3)CC2)c(Cl)c1 [compound 90] | > 100 |
| CCNC(=O)N(Cc1cnc(N2CCN(C3CCN(Cc4ccc(Cl)cc4F)CC3)[C@@H](CC)C2)c(Cl)c1)C1CC1 [compound 423] | 25 to 100 |
| N#Cc1ccc(CN2CCC(N3CCN(c4ncc(C(=O)NCc5ccc(F)c(Cl)c5)cc4Cl)CC3)CC2)cc1 [compound 107] | 25 to 100 |
| CC[C@H]1CN(c2ncc(CNC(C)=O)cc2Cl)CCN1C1CCN(Cc2ccc(Cl)cc2F)CC1 [compound 387] | < 25 |
| CNC(=O)c1cnc(N2CCN(C3CCN(Cc4ccccc4Cl)CC3)[C@@H](C)C2)c(Cl)c1 [compound 349] | > 100 |
